Common to all, as to format: cell-based
In test [1] the test system is Staphylococcus aureus, MRSA (ATCC 33591). Nature of the test: Antibacterial MIC assay (microbroth dilution, CLSI). To be noted: read-out: MIC Staphylococcus aureus, MRSA (ATCC 33591). An outline of the steps:
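Compound 2-fold dilution series tested against 5×10^5 CFU/mL bacteria prepared from 0.5 McFarland saline suspensions of overnight colonies. Medium was cation-adjusted Mueller-Hinton broth, supplemented with 3% lysed horse blood for the fastidious pneumococcus. Protocol followed CLSI M07-A10 and M100-S25.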
In general terms: In broth dilution the organism is exposed to a series of concentrations in liquid medium.

Test [2] deals with Streptococcus pneumoniae (ATCC 49619). Described as above. An outline of the steps: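 S. pneumoniae at 5×10^5 CFU/mL (from 0.5 McFarland saline suspension) was tested against 2-fold serial compound dilutions in cation-adjusted Mueller-Hinton broth plus 3% lysed horse blood, per CLSI M07-A10/M100-S25 microdilution guidelines.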
In test [3] the test system is Wolbachia pipientis in C6/36 cell line. The experiment in a line: Anti-Wolbachia high-content assay. As to conditions: read-out: EC50 Wolbachia pipientis in C6/36 cell line. The procedure: After 15 minutes, all media was removed from each well and fresh media (no stain) was added. Imaging of each well was accomplished using a Perkin Elmer Operetta high-content imaging system. Five fields per well were imaged using a confocal 60× objective with the Fluorescein filter (excitation filter: 460-490 nm; emission filter: 500-550 nm). Images were analyzed using the Perkin Elmer Harmony software to score each intact cell on the basis of texture complexity of the cytoplasm. Full details can be found in: […]. et al, J. Biomol.

Where [4] appears, read: microbroth dilution, cation-adjusted Mueller-Hinton broth, 35° C. for 16-20 hours.
The mark [5] stands for this setting: ATCC49619, microbroth dilution, 3% lysed horse blood, 35° C. for 16-20 hours, read-out: MIC Streptococcus pneumoniae (ATCC 49619).
The mark [6] stands for this setting: C6/36 (wAlbB) cells, 7 days at 26° C., 50% reduction of Wolbachia.

Structures are written as SMILES. In brackets after ≈: the same amount, converted by molar mass. Like-named read-outs stand apart in the source and are kept apart here.

Take `C=C[C@]1(C)C[C@@H](OC(=O)COc2ccc3c(c2F)B(O)N(S(C)(=O)=O)N=C3)[C@]2(C)[C@H](C)CC[C@]3(C[C@H](F)C(=O)[C@H]32)[C@@H](C)[C@@H]1O` [Compound 76, (2S,3aR,4R,5R,7S,8S,9R,9aS,12R)-2-fluoro-8-hydroxy-4,7,9,12-tetramethyl-3-oxo-7-vinyldecahydro-4,9a-propanocyclopenta[8]annulen-5-yl 2-((8-fluoro-1-hydroxy-2-(methylsulfonyl)-1,2-dihydrobenzo[d][1,2,3]diazaborinin-7-yl)oxy)acetate]: the MIC in test [1] (setting [4]) and in test [2] (setting [5]) was 0.5 to 2 µg/mL (≈ 0.786 to 3.14 µM) each time. The EC50 in test [3] (setting [6]) was greater than 1000 nM.
For `C=C[C@]1(C)C[C@@H](OC(=O)COc2ccc3c(c2F)B(O)N(S(C)(=O)=O)N=C3)[C@]2(C)[C@H](C)CC[C@]3(C[C@H](O)C(=O)[C@H]32)[C@@H](C)[C@@H]1O` [Compound 77, (2S,3aR,4R,5R,7S,8S,9R,9aS,12R)-2,8-dihydroxy-4,7,9,12-tetramethyl-3-oxo-7-vinyldecahydro-4,9a-propanocyclopenta[8]annulen-5-yl 2-((8-fluoro-1-hydroxy-2-(methylsulfonyl)-1,2-dihydrobenzo[d][1,2,3]diazaborinin-7-yl)oxy)acetate], the MIC (usually the lowest concentration found to suppress growth) in test [1] (setting [4]) fell in the range of 4 to 32 µg/mL (≈ 6.3 to 50.4 µM); in test [2] (setting [5]), 0.5 to 2 µg/mL (≈ 0.788 to 3.15 µM). Besides, the EC50 in test [3] (setting [6]) was greater than 1000 nM.
The matching figures for `C=C[C@]1(C)C[C@@H](OC(=O)COc2ccc3c(c2)B(O)N(S(C)(=O)=O)N=C3)[C@]2(C)[C@H](C)CC[C@]3(C[C@H](O)C(=O)[C@H]32)[C@@H](C)[C@@H]1O` [Compound 78, (2S,3aR,4R,5R,7S,8S,9R,9aS,12R)-2,8-dihydroxy-4,7,9,12-tetramethyl-3-oxo-7-vinyldecahydro-4,9a-propanocyclopenta[8]annulen-5-yl 2-((1-hydroxy-2-(methylsulfonyl)-1,2-dihydrobenzo[d][1,2,3]diazaborinin-7-yl)oxy)acetate]: 0.5 to 2 µg/mL (≈ 0.811 to 3.24 µM), 0.5 to 2 µg/mL (≈ 0.811 to 3.24 µM) and 13 nM.
The matching figures for `C=C[C@]1(C)C[C@@H](OC(=O)COc2ccc3c(c2)B(O)N(S(C)(=O)=O)N=C3)[C@]2(C)[C@H](C)CC[C@]3(C[C@H](F)C(=O)[C@H]32)[C@@H](C)[C@@H]1O` [Compound 79, (2S,3aR,4R,5R,7S,8S,9R,9aS,12R)-2-fluoro-8-hydroxy-4,7,9,12-tetramethyl-3-oxo-7-vinyldecahydro-4,9a-propanocyclopenta[8]annulen-5-yl 2-((1-hydroxy-2-(methylsulfonyl)-1,2-dihydrobenzo[d][1,2,3]diazaborinin-7-yl)oxy)acetate]: 0.5 to 2 µg/mL (≈ 0.808 to 3.23 µM), 0.5 to 2 µg/mL (≈ 0.808 to 3.23 µM) and 56 nM.
With `C=C[C@]1(C)C[C@@H](OC(=O)COc2ccc3c(c2F)B(O)NN=C3)[C@]2(C)[C@H](C)CC[C@]3(CCC(=O)[C@H]32)[C@@H](C)[C@@H]1O` [Compound 81, (3aR,4R,5R,7S,8S,9R,9aS,12R)-8-hydroxy-4,7,9,12-tetramethyl-3-oxo-7-vinyldecahydro-4,9a-propanocyclopenta[8]annulen-5-yl 2-((8-fluoro-1-hydroxy-1,2-dihydrobenzo[d][1,2,3]diazaborinin-7-yl)oxy)acetate], the MIC was less than 0.25 µg/mL in test [1] and less than 0.25 µg/mL in test [2] (ATCC49619, read-out: MIC Streptococcus pneumoniae (ATCC 49619)). For the same compound, the EC50 in test [3] (C6/36, […]) came out at 34 nM.
On to `C=C[C@]1(C)C[C@@H](OC(=O)COc2ccc3c(c2)B(O)N(C)N=C3)[C@]2(C)[C@H](C)CC[C@]3(C[C@H](O)C(=O)[C@H]32)[C@@H](C)[C@@H]1O` [Compound 82, (2S,3aR,4R,5R,7S,8S,9R,9aS,12R)-2,8-dihydroxy-4,7,9,12-tetramethyl-3-oxo-7-vinyldecahydro-4,9a-propanocyclopenta[8]annulen-5-yl 2-((1-hydroxy-2-methyl-1,2-dihydrobenzo[d][1,2,3]diazaborinin-7-yl)oxy)acetate], for which the MIC in test [1] (setting [4]) is 0.5 to 2 µg/mL (≈ 0.905 to 3.62 µM); in test [2] (setting [5]), less than 0.25 µg/mL. The EC50 in test [3] (setting [6]) is 36 nM.
The matching figures for `C=C[C@]1(C)C[C@@H](OC(=O)COc2ccc3c(c2)B(O)N(C)N=C3)[C@]2(C)[C@H](C)CC[C@]3(C[C@H](F)C(=O)[C@H]32)[C@@H](C)[C@@H]1O` [Compound 84, (2S,3aR,4R,5R,7S,8S,9R,9aS,12R)-2-fluoro-8-hydroxy-4,7,9,12-tetramethyl-3-oxo-7-vinyldecahydro-4,9a-propanocyclopenta[8]annulen-5-yl 2-((1-hydroxy-2-methyl-1,2-dihydrobenzo[d][1,2,3]diazaborinin-7-yl)oxy)acetate]: 0.5 to 2 µg/mL (≈ 0.902 to 3.61 µM), 0.5 to 2 µg/mL (≈ 0.902 to 3.61 µM) and 78 nM.
The matching figures for `C=C[C@]1(C)C[C@@H](OC(=O)COc2ccc3c(c2)B(O)N(C(C)=O)N=C3)[C@]2(C)[C@H](C)CC[C@]3(C[C@H](O)C(=O)[C@H]32)[C@@H](C)[C@@H]1O` [Compound 86, (2S,3aR,4R,5R,7S,8S,9R,9aS,12R)-2,8-dihydroxy-4,7,9,12-tetramethyl-3-oxo-7-vinyldecahydro-4,9a-propanocyclopenta[8]annulen-5-yl 2-((2-acetyl-1-hydroxy-1,2-dihydrobenzo[d][1,2,3]diazaborinin-7-yl)oxy)acetate]: less than 0.25 µg/mL, 0.5 to 2 µg/mL (≈ 0.861 to 3.45 µM) and 1 nM.
Taken in the same sequence, the figures for `C=C[C@]1(C)C[C@@H](OC(=O)COc2ccc3c(c2)B(O)N(C(C)=O)N=C3)[C@]2(C)[C@H](C)CC[C@]3(C[C@H](F)C(=O)[C@H]32)[C@@H](C)[C@@H]1O` [Compound 88, (2S,3aR,4R,5R,7S,8S,9R,9aS,12R)-2-fluoro-8-hydroxy-4,7,9,12-tetramethyl-3-oxo-7-vinyldecahydro-4,9a-propanocyclopenta[8]annulen-5-yl 2-((2-acetyl-1-hydroxy-1,2-dihydrobenzo[d][1,2,3]diazaborinin-7-yl)oxy)acetate] were less than 0.25 µg/mL, 0.5 to 2 µg/mL (≈ 0.858 to 3.43 µM) and 4 nM.
`C=C[C@]1(C)C[C@@H](OC(=O)COc2ccc3c(c2)B(O)N(C(=O)OC)N=C3)[C@]2(C)[C@H](C)CC[C@]3(C[C@H](O)C(=O)[C@H]32)[C@@H](C)[C@@H]1O` [Compound 90, Methyl 7-(2-(((2S,3aR,4R,5R,7S,8S,9R,9aS,12R)-2,8-dihydroxy-4,7,9,12-tetramethyl-3-oxo-7-vinyldecahydro-4,9a-propanocyclopenta[8]annulen-5-yl)oxy)-2-oxoethoxy)-1-hydroxybenzo[d][1,2,3]diazaborinine-2(1H)-carboxylate]: the MIC is less than 0.25 µg/mL in test [1] (setting [4]) and 0.5 to 2 µg/mL (≈ 0.838 to 3.35 µM) in test [2] (setting [5]). In addition, the EC50 in test [3] (setting [6]) was 3 nM.
The matching figures for `C=C[C@]1(C)C[C@@H](OC(=O)COc2ccc3c(c2)B(O)N(C(=O)OC)N=C3)[C@]2(C)[C@H](C)CC[C@]3(C[C@H](F)C(=O)[C@H]32)[C@@H](C)[C@@H]1O` [Compound 92, Methyl 7-(2-(((2S,3aR,4R,5R,7S,8S,9R,9aS,12R)-2-fluoro-8-hydroxy-4,7,9,12-tetramethyl-3-oxo-7-vinyldecahydro-4,9a-propanocyclopenta[8]annulen-5-yl)oxy)-2-oxoethoxy)-1-hydroxybenzo[d][1,2,3]diazaborinine-2(1H)-carboxylate]: less than 0.25 µg/mL, 0.5 to 2 µg/mL (≈ 0.835 to 3.34 µM) and 3 nM.
The matching figures for `C=C[C@]1(C)C[C@@H](OC(=O)COc2ccc3c(c2C)B(O)N(C(=O)OC)N=C3)[C@]2(C)[C@H](C)CC[C@]3(C[C@H](F)C(=O)[C@H]32)[C@@H](C)[C@@H]1O` [Compound 95, Methyl 7-(2-(((2S,3aR,4R,5R,7S,8S,9R,9aS,12R)-2-fluoro-8-hydroxy-4,7,9,12-tetramethyl-3-oxo-7-vinyldecahydro-4,9a-propanocyclopenta[8]annulen-5-yl)oxy)-2-oxoethoxy)-1-hydroxy-8-methylbenzo[d][1,2,3]diazaborinine-2(1H)-carboxylate]: less than 0.25 µg/mL, less than 0.25 µg/mL and 46 nM.
Turning to `C=C[C@]1(C)C[C@@H](OC(=O)COc2ccc3c(c2)B(O)ON=C3)[C@]2(C)[C@H](C)CC[C@]3(C[C@H](O)C(=O)[C@H]32)[C@@H](C)[C@@H]1O` [Compound 98, (2S,3aR,4R,5R,7S,8S,9R,9aS,12R)-2,8-dihydroxy-4,7,9,12-tetramethyl-3-oxo-7-vinyldecahydro-4,9a-propanocyclopenta[8]annulen-5-yl 2-((1-hydroxy-1H-benzo[d][1,2,6]oxazaborinin-7-yl)oxy)acetate], the MIC in test [1] (setting [4]) and in test [2] (setting [5]) was 0.5 to 2 µg/mL (≈ 0.927 to 3.71 µM) each time. In addition, the EC50 in test [3] (setting [6]) worked out at 63 nM.
`C=C[C@]1(C)C[C@@H](OC(=O)COc2ccc3c(c2)B(O)ON=C3)[C@]2(C)[C@H](C)CC[C@]3(C[C@H](F)C(=O)[C@H]32)[C@@H](C)[C@@H]1O` [Compound 99, (2S,3aR,4R,5R,7S,8S,9R,9aS,12R)-2-fluoro-8-hydroxy-4,7,9,12-tetramethyl-3-oxo-7-vinyldecahydro-4,9a-propanocyclopenta[8]annulen-5-yl 2-((1-hydroxy-1H-benzo[d][1,2,6]oxazaborinin-7-yl)oxy)acetate]: the MIC in test [1] (setting [4]) and in test [2] (setting [5]) was 0.5 to 2 µg/mL (≈ 0.923 to 3.69 µM) in each case. In addition, in test [3] (setting [6]), the EC50 came out at 13 nM.

These data come from patent US10919916B2, “Boron-containing small molecules” (Bill & Melinda Gates Foundation, priority 2016, dated 2021).
